Calls of active or inactive are those of the source. The rule behind the calls is not given here.
Legend:
[1] = tested on: Mus musculus; experiment: Inhibition of haloperidol-induced catalepsy in po dosed mouse; assay type: functional
[2] = biological target: T1, Adenosine receptor A1 (Homo sapiens, UniProt P30542); experiment: Antagonist activity at adenosine A1 receptor; assay type: functional
T1 sequence (P30542 whole entry): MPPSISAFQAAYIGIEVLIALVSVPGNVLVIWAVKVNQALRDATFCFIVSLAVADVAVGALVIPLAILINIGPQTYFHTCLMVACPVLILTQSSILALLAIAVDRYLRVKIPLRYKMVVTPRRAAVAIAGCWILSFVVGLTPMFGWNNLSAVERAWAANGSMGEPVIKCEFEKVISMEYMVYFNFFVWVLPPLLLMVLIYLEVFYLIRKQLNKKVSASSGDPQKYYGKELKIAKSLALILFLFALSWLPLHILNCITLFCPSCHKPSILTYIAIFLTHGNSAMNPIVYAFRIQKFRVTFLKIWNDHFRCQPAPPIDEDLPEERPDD

[3] = biological target: Adenosine receptor A2a (Homo sapiens, UniProt P29274); experiment: Antagonist activity at adenosine A2A receptor; assay type: functional
[4] = tested on: Mus musculus; experiment: Inhibition of haloperidol-induced catalepsy in mouse at 10 mg/kg, po; assay type: functional, organism-based; set-up: dose 10 mg/kg
[5] = Mutagenic activity in Salmonella Typhimurium by Ames assay; assay type: toxicity; details: salmonella enterica subsp. enterica serovar typhimurium

Chain of Adenosine receptor A2a (P29274 whole entry): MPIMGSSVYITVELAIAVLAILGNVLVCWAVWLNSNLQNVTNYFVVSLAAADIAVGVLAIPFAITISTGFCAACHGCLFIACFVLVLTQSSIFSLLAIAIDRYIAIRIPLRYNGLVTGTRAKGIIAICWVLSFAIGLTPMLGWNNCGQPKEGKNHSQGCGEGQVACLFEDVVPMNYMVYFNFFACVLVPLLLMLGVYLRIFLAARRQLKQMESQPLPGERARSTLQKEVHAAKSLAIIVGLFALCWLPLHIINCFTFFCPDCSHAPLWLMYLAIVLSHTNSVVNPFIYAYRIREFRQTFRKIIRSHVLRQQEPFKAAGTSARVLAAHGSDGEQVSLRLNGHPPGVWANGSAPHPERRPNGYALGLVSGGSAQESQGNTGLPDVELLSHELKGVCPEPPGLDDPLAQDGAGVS

Compound	Ki [2]	Ki [3]	ED50 [1]	inhibition [4]	Activity [5]
CCN(CC)Cc1cccc2c1-c1nc(N)nc(-c3ccccc3)c1C2=O	107 nM	18.3 nM		inactive	
Nc1nc(-c2ccccc2)c2c(n1)-c1ccccc1C2=O	1.1 nM		8 mg/kg		Non-toxic
COc1cccc(-c2nc(N)nc3c2C(=O)c2ccccc2-3)c1	2.5 nM	1.6 nM		inactive	Non-toxic
Nc1nc(-c2ccccc2)c2c(n1)-c1c(CN3CCCCCC3)cccc1C2=O	95.2 nM	8.6 nM		inactive	
Nc1nc(-c2ccc(Cl)o2)c2c(n1)-c1ccccc1C2=O	0.5 nM	0.2 nM		inactive	
CC1CCC(C)N1Cc1cccc2c1-c1nc(N)nc(-c3ccccc3)c1C2=O (stereo unspecified)	140 nM	11.3 nM		inactive	
CC(=O)N1CCN(Cc2cccc3c2-c2nc(N)nc(-c4ccccc4)c2C3=O)CC1	34.1 nM	7.9 nM	10.7 mg/kg		
CN(C)CCN(C)Cc1cccc2c1-c1nc(N)nc(-c3ccccc3)c1C2=O	119 nM	40.1 nM		inactive	
Nc1nc(-c2ccncc2)c2c(n1)-c1ccccc1C2=O				inactive	
CN(C)CCN(C)c1ccc(-c2nc(N)nc3c2C(=O)c2ccccc2-3)o1	40 nM	10.5 nM	17.1 mg/kg		Non-toxic
Nc1nc(-c2nccs2)c2c(n1)-c1ccccc1C2=O		0.5 nM		inactive	
COc1ccccc1-c1nc(N)nc2c1C(=O)c1ccccc1-2				inactive	Non-toxic
Nc1nc(-c2ccco2)c2c(n1)-c1ccccc1C2=O	0.4 nM		5 mg/kg		Toxic
Nc1nc(-c2ccccc2)c2c(n1)-c1c(CN3CCOCC3)cccc1C2=O	32.9 nM	3.3 nM	5.6 mg/kg		
Nc1nc(-c2ccccc2)c2c(n1)-c1c(CN3CCCCC3)cccc1C2=O	40.8 nM	14.3 nM	5 mg/kg		
Nc1nc(-c2ccc(Cl)cc2)c2c(n1)-c1ccccc1C2=O				inactive	Non-toxic

Further lines, with some results ahead:

Ki [2]	Ki [3]	Compound	ED50 [1]	inhibition [4]	Activity [5]
66.2 nM	12.8 nM	Nc1nc(-c2ccc(F)cc2)c2c(n1)-c1cc(CN3CCCC3)ccc1C2=O	1.6 mg/kg		
20 nM	7.8 nM	CN(C)CCN(C)Cc1ccc2c(c1)-c1nc(N)nc(-c3ccccc3)c1C2=O			
85 nM	3.6 nM	Nc1nc(-c2ccc(F)cc2)c2c(n1)-c1c(CN3CCCC3)cccc1C2=O	0.8 mg/kg		
94.2 nM	11.3 nM	CN1CCN(Cc2cccc3c2-c2nc(N)nc(-c4ccccc4)c2C3=O)CC1	7.8 mg/kg		
95.7 nM	9.9 nM	Nc1nc(-c2ccc(F)cc2)c2c(n1)-c1cc(CN3CCCCC3)ccc1C2=O	0.6 mg/kg		
225 nM	29.8 nM	CN1CCN(Cc2ccc3c(c2)-c2nc(N)nc(-c4ccc(F)cc4)c2C3=O)CC1	3.5 mg/kg		
75 nM	5.4 nM	N#Cc1cccc(-c2nc(N)nc3c2C(=O)c2cccc(CN4CCOCC4)c2-3)c1	1.7 mg/kg		
155 nM	3.8 nM	Nc1nc(-c2ccc(F)cc2)c2c(n1)-c1c(CN3CCOCC3)cccc1C2=O	1.3 mg/kg		
116 nM	2.5 nM	Nc1nc(-c2ccccc2)c2c(n1)-c1c(CN3CCCC3)cccc1C2=O	3.8 mg/kg		
